Measurements taken from patent US8916709B2, “1,2,4-oxadiazole and 1,2,4-thiadiazole β-lactamase inhibitors” (priority 2012, dated 2014).
Counter-ions that a name gives are not always drawn.

Legend:
[1] = test system: bacterial strains that express OXA-15 β-lactamases; assay: Standard BLI potentiation MIC / synergy MIC assays, strains expressing OXA-15; assay type: cell-based, E. coli; conditions: in combination with a β-lactam; versus Avibactam (comparator compound CCC)
Excerpt: (§1) A set of β-lactamase expressing isogenic E. coli strains was constructed by cloning a β-lactamase gene into a customized derivative of pBR322 (GenBank Accession Number J01749) and transforming the engineered plasmids into E. coli. The NdeI restriction site within the plasmid backbone of pBR322 was removed to generate pBR322ΔNdeI. The pBR322ΔNdeI vector itself, minus the blaTEM-1 gene, was amplified using two primers: (1) pBR-Pbla 5′-[…]-3, SEQ ID 1, a primer with an engineered NdeI restriction site at the 3′ end of the blaTEM-1 promoter and (2) pBR-vec-1 5′-[…]-3′, SEQ ID 2, a primer with an engineered BamHI restriction site at the 3′ end of the blaTEM-1 open reading frame. The chloramphenicol resistance gene, cat, was generated by PCR amplification from pKD3 (GenBank Accession Number AY048742) using primers with an engineered NdeI restriction site at the 5′ end (Pbla-cat 5′-[…]-3′, SEQ ID 3) and an engineered BamHI restriction site at the 3′ end (Vec-1-cat 5′-[…]-3′, SEQ ID 4) of the resistance gene. The two PCR products, pBR322ΔNdeI and cat were ligated together generating pBR-CBST (pBR322ΔNdeI ΔTEM-1::cat Seq. ID 5) which retains both the pBR322 tetracycline resistance cassette, tetA, and the plasmid origin of replication but the blaTEM-1 gene was replaced by the cat gene.
(§2) Using this engineering strategy a number of plasmids producing β-lactamase genes from different classes (see below) were generated using synthetic genes with an engineered NdeI restriction site at the 5′ end and BamHI restriction site at the 3′ end of each gene (GenScript). Both the synthetic β-lactamase genes and cat gene were ligated into the NdeI/BamHI sites of the pBR322ΔNdeI PCR product and transformed into electrocompetent E. coli ElectroMax DH10B (Invitrogen/Life Technologies). E. coli DH10B harboring the recombinant plasmids were selected on LB agar (supplemented with 25 μg/mL tetracycline) and single isolated colonies were then inoculated into 5 mL LB media (supplemented with 25 μg/mL tetracycline), and incubated at 37° C. with aeration (250 rpm) for 18 hrs. The cultures were frozen back at −80° C. in 20% glycerol. The DNA sequence of the cloned β-lactamase genes was confirmed. The β-lactamase gene expression in the recombinant E. coli strains was driven by the blaTEM-1 promoter in the pBR-CBST plasmid and was characterized by MIC profiling of the E. coli recombinant strains against comparator β-lactam/BLI combinations in broth microdilution assay. […]

[2] = test system: bacterial strains that express KPC β-lactamases; assay: Standard BLI potentiation MIC / synergy MIC assays, strains expressing KPC; assay type: cell-based; conditions: in combination with a β-lactam; versus Avibactam
Excerpt: as §1, §2

Compound	activity against strains that express OXA-15 β-lactamases compared with Avibactam [1]	activity / spectrum of activity against strains that express KPC β-lactamases compared with Avibactam [2]
O=C1N2C[C@@H](CC[C@H]2c2ncno2)N1OS(=O)(=O)O [Compound 801, (2S,5R)-2-(1,2,4-oxadiazol-5-yl)-7-oxo-1,6-diazabicyclo[3.2.1]octan-6-yl hydrogen sulfate]	more active than Avibactam	more active than, and/or show a better spectrum of activity than Avibactam
CCCC[N+](CCCC)(CCCC)CCCC.Nc1noc([C@@H]2CC[C@@H]3CN2C(=O)N3OS(=O)(=O)[O-])n1 [Compound 802, (2S,5R)-2-(3-amino-1,2,4-oxadiazol-5-yl)-7-oxo-1,6-diaza-bicyclo[3.2.1]octan-6-yl tetrabutylaminooxy sulfonate]	more active than Avibactam	more active than, and/or show a better spectrum of activity than Avibactam
O=C1N2C[C@@H](CC[C@H]2c2ncon2)N1OS(=O)(=O)O [Compound 804, (2S,5R)-2-(1,2,4-oxadiazol-3-yl)-7-oxo-1,6-diazabicyclo[3.2.1]octan-6-yl hydrogen sulfate]	more active than Avibactam	more active than, and/or show a better spectrum of activity than Avibactam
Nc1nc([C@@H]2CC[C@@H]3CN2C(=O)N3OS(=O)(=O)O)no1 [Compound 805, (2S,5R)-2-(5-amino-1,2,4-oxadiazol-3-yl)-7-oxo-1,6-diazabicyclo[3.2.1]octan-6-yl hydrogen sulfate]	more active than Avibactam	more active than, and/or show a better spectrum of activity than Avibactam
